The results in this text go back to patent publication US20250275948A1, “(N-[4-(2,3-DIHYDRO-1H-INDEN-5-YL)-1,3-THIAZOL-2-YL]-2-[4-METHYL-4-(NAPHTHALEN-2-YL)-2,5-DIOXOIMIDAZOLIDIN-1-YL]ACETAMIDE AS STABILIZER OF CLOCK:BMAL1 INTERACTION FOR THE TREATMENT OF CIRCADIAN RHYTHM DISEASES AND DISORDERS” (KOC UNIVERSITESI, priority 2022, published 2025).

For assay [1], the target named is T1, CLOCK and BMAL1 (Mus musculus, UniProt O08785+Q9WTL8).
T1 construct: from tissue; host or cells: liver of C57BL/6J mice
Nature of the assay: Subcellular fractionation from mice liver. Further details: species or system mice (C57BL/6J). The settings on record: in vivo and in vitro. The procedure:
8-12 weeks old male C57BL/6J mice were used for in vivo studies. Mice weighing 24-28 grams were subjected to a single dose of CLK95 (50 mg/kg) or vehicle (DMSO:Cremophor EL: 0.9% NaCl; 2.5:15:82.5, v/v/v) intraperitoneally. Animals which were obtained from Koç University Animal Research Facility were fed ad libitum. Four hours after treatment, animals were sacrificed, and the internal organs were harvested.
Subcellular fractionation from mice liver was performed by using 10 mg tissue sample. Buffers that were used in this process are same as in given in section 3.13. First, the tissue was washed in 500 μL ice-cold 1×PBS buffer and then resuspended in 300 μL cytosolic lysis buffer by pipetting and incubated on ice for 10 min. Samples were centrifuged at 660×g for 5 minutes (4° C.) to get rid of cell debris. While supernatants were collected and transferred to new microcentrifuge tubes for processing later to give cytosolic fractions, pellets containing intact nucleus were washed 3 times with 300 μL cytosolic lysis buffer. At the end of each wash, suspensions were centrifugated for 5 minutes at 660×g (4° C.). […] Samples were analysed with Western blot as described earlier using anti-CLOCK (Bethyl, A302-618A), anti-BMAL1 (Santa Cruz Biotech., SC-365645), anti-CRY1 (Bethyl, A302-614A), anti-Histone H3 (Abcam, ab1791), and anti-αTUBULIN (Sigma-Aldrich, T9026) antibodies were used.

Assay [2] deals with T2, CLOCK:BMAL1 complex (Homo sapiens, UniProt O00327+O15516).
T2 construct: expressed in transfected cells; host or cells: HEK 293T
Put plainly: Pull-down assay with biotinylated-CLK95. The class given is binding. As to conditions: 20 μM bCLK95 bait, 200 μM CLK95 competitor; HEK 293T and U2OS lysates. The procedure: To perform pull-down assay HEK 293T cells were transiently transfected with either 10 μg pCMV-Sport6-CLOCK or 10 μg pCMV-Sport6-Bmal1 plasmids. First, cells were seeded in a 10 cm cell culture dish at a density which will give ˜70-80% confluency next day. Then cells were transfected with 10 μg of the appropriate plasmid using 30 μL PEI in 1 mL DMEM. Cells were harvested 24 hours post-transfection and divided into four 1.5 mL centrifuge tubes. The conditions that were employed to probe the binding of the molecule to proteins contained a) only CLOCK overexpressed, b) only BMAL1 overexpressed and c) CLOCK-BMAL1 overexpressed mixtures. Pellet for each condition was lysed with 500 μL Lysis Buffer (50 mM Tris-HCl PH 7.4, 2 mM EDTA, 1 mM MgCl2, 0.2% NP-40, 1 mM Na3VO4, 1 mM NaF, 1×PIC) and incubated on ice for 20 minutes. Then samples were centrifuged at 7000×g for 10 minutes at 4° C. The supernatants of the CLOCK and BMAL1 lysates were mixed at 1:1 ratio. Following this step, collected lysate mixture was mixed with 2× binding buffer (100 mM Tris-HCl pH 7.4, 300 mM NaCl, 0.2% NP-40, 2 mM Na3VO4, 2 mM NaF, 2×PIC) at 1:1 ratio. […]

T2 sequence (O15516 whole entry): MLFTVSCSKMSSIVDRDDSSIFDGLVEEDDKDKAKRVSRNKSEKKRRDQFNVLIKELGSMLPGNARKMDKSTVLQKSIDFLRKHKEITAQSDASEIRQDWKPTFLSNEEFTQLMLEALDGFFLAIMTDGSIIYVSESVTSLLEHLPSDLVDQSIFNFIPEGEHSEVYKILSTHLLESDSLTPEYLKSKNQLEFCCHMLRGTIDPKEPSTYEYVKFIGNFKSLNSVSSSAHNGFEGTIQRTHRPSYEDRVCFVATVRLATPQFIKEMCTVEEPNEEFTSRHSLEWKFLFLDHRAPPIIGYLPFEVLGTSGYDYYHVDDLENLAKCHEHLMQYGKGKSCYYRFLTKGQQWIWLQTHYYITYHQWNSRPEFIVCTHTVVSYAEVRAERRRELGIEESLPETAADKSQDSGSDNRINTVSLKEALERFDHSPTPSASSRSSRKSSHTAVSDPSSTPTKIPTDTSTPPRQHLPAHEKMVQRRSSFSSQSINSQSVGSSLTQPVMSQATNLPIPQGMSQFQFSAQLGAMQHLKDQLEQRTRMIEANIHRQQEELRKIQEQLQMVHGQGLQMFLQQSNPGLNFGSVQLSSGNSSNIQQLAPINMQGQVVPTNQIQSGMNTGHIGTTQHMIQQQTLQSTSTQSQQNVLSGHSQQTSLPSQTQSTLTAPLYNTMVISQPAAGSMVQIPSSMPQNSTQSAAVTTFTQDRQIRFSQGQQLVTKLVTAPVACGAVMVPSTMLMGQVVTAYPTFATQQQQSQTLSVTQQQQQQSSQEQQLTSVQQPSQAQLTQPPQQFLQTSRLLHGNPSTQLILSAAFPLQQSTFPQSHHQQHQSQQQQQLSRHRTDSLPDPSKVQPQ
T2 sequence (O00327 whole entry): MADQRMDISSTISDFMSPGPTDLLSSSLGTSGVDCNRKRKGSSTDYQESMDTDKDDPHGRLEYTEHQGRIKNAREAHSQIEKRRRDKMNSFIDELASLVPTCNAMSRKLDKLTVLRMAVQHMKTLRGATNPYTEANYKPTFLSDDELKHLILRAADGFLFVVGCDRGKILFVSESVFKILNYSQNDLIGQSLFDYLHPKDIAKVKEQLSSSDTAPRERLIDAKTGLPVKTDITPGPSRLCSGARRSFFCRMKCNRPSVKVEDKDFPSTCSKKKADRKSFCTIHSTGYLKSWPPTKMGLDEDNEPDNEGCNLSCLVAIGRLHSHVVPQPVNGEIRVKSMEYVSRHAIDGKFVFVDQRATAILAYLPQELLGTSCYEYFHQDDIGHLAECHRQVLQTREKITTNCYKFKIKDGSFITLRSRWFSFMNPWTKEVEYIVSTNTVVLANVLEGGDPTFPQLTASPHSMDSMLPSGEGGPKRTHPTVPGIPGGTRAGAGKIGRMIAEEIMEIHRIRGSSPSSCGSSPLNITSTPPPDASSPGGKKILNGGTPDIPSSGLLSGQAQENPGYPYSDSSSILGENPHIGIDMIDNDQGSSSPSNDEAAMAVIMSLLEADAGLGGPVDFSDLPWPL

Turning to `CC1(c2ccc3ccccc3c2)NC(=O)N(CC(=O)Nc2nc(-c3ccc4c(c3)CCC4)cs2)C1=O` (centres unmarked) [CLK95], in assay [1], the “translocation of CLOCK and BMAL1 into the nucleus” value is “interfering with the translocation of CLOCK and BMAL1 into the nucleus both in vivo and in vitro”. The binding in pull-down entry in assay [2] is “specifically binding to CLOCK:BMAL1 complex”.
